# Data as given in the supplement of paper PMC9013687.
# How the values were obtained:
# [1] = system: Danio rerio embryo; experiment: EC50 Head-trunk angle_Decrease; conditions: exposure time: 2 dpf
# Experimental: (§1)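 Zebrafish embryos (UFZ-OBI strain) were exposed from 2 hpf for 48 h (2 dpf) or 96 h (4 dpf) at 28 °C; spontaneous tail coiling was scored at 25 hpf. Morphological features from automated image analysis (FishInspector), heart rate and locomotor response were fitted with drc models. Quantal endpoints were dichotomised at 2.5 SD from controls and fitted with a log-logistic model; heart rate, pigmentation and STC were normalised to the replicate control mean. Betamethasone was tested as betamethasone dipropionate, diflorasone as diflorasone diacetate.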
# [2] = system: Danio rerio embryo; experiment: EC20 Head-trunk angle_Decrease; higher = less potent; conditions: exposure time: 2 dpf
# Experimental: as §1
smiles,measurement,setting,value
C[Si](Cn1cncn1)(c1ccc(F)cc1)c1ccc(F)cc1 [Flusilazole],EC50 Head-trunk angle Decrease,[1],11.8 µM
same,EC20 Head-trunk angle Decrease,[2],6.28 µM
